# From patent publication US20120189563A1, “ORAL COMPOSITION FOR ALLEVIATING ULTRAVIOLET IRRADIATION-INDUCED DAMAGE” (Shiseido Company, Ltd., priority 2009, published 2012)
# Read-outs that look alike come from different tables or passages of the source.
# How the values were obtained:
# [1] = test system: Male hairless mice (Hos: HR-1); conditions: Example 3, 10 mM in drinking water; for effect on UV-B-induced wrinkling (in words): P=0.55% in Mann-Whitney U test; for number of animals of each wrinkle score after the UV-B irradiation: UV(+) control: one scored 5, two 6, two 7, three 8
# Source text: (§1) Male hairless mice (Hos: HR-1, six-week old, Hoshino Laboratory Animals, Inc.) were employed and subjected to a partly modified method by Schwarz et al. (Haratake A. et al. J. Invest. Dermatol. 108:769-775, 1997.) in accordance with the repetitive UV-B irradiation method (Naganuma M. et al. J. Dermatol. Sci. 25:29-35, 2001. Schwartz E. J. Invest. Dermatol. 91:158-161, 1988.) whereby forming wrinkles. Thus, the dorsal region was irradiated with UV-B (light source: Toshiba FL-20 SE fluorescent lamp manufactured by Toshiba Electric) three times a week for 12 weeks. […] The total irradiation dose was 4.482 J/cm^2. The UV dose measured using UVRADIOMETER (UVR-305/365D (II), Topcon Corporation) was employed as a readout. During the UV-B irradiation, 10 mM D-methionine was given via a water supplier bottle. As a control, a tap water was given in the same manner. The water supplier bottle was exchanged once a week.
# After the irradiation to the mice described above, the dorsal regions of the mice were photographed, and a partly modified method by Bissett et al. (Bissett D L. et al. Photochemistry and Photobiology 46:367-378, 1987.) was employed to evaluate the degree of wrinkling in accordance with the criteria indicated in Table 1 below. The wrinkle evaluation was performed separately by four observers, who thereafter consulted together to determine a score about the wrinkle grade (hereinafter, simply referred to as “score”).
# During the UV-B irradiation, 10 mM L- or D-methionine was given via a water supplier bottle. The UV irradiation and the wrinkling determination were conducted by the methods described in Example 2.
# [2] = test system: Male hairless mice (Hos: HR-1); conditions: Example 2, 10 mM in drinking water
# Source text: as §1
# After the irradiation to the mice described above, the dorsal regions of the mice were photographed, and a partly modified method by Bissett et al. (Bissett D L. et al. Photochemistry and Photobiology 46:367-378, 1987.) was employed to evaluate the degree of wrinkling in accordance with the criteria indicated in Table 1 below. […]
# [3] = test system: human neonatal dermal fibroblast (Cryo NHDF-Neo); test: Ultraviolet irradiation-induced damage test in cultured cell, post-irradiation addition (Alamar Blue); conditions: UV-A 8 J/cm^2
# Method: The cell employed was a commercially available human neonatal dermal fibroblast (Cryo NHDF-Neo, Sanko-Junyaku Co., Ltd.). This cell was inoculated at 2×10^5 cells/mL to a commercially available culture dish of 35 mm in diameter (BD FALCON 353001, Becton Dickinson Japan), where it was cultured in a commercially available cell culture medium (D-MEM (1 g/L glucose, Wako Pure Chemical Industries, Ltd.) supplemented with 10% fetal bovine serum and 1% antibiotic (15240-062, GIBCO) (hereinafter, referred to as “ordinary medium”). This cell was cultured for about 24 hours in a 5% CO2 and saturated water vapor atmosphere at 37° C. (degrees Celsius).
# Thereafter, the culture medium for culturing the cell described above was switched to 1 mL of a BSO medium supplemented with a glutathione biosynthesis inhibitor BSO (L-buthionine-(S,R)-sulfoximine, Wako Pure Chemical Industries, Ltd.) at 1×10^−3%, where the culture was conducted for about 24 hours in a 5% CO2 and saturated water vapor atmosphere at 37° C. […] The BSO medium described above was prepared by a 200-fold dilution of a stock solution containing 0.2% BSO dissolved in ethyl alcohol with the ordinary medium described above.
# Ferric chloride (II) was dissolved in a distilled water at 2×10^−3%, and the resultant solution was subjected to a 200-fold dilution (final concentration: 1×10^−5%) with a phosphate buffer solution PBS (+) containing calcium ion and magnesium ion to obtain a medium (hereinafter, referred to as “UV irradiation medium”), which was warmed preliminarily to 37° C. before use.
# Before UV-A irradiation, the culture medium was replaced with 1 mL of the UV irradiation medium described above. […] The UV dose was measured using UV RADIOMETER UVR-3036/S (Topcon Corporation).
# After the ultraviolet irradiation, the medium was switched back to the ordinary medium described above, and the culture was conducted in a 5% CO2 and saturated water vapor atmosphere at 37° C.
# Thereafter, the culture medium was supplemented with Alamar Blue (trade mark, Invitrogen) at a final concentration of 10%, and its supernatant was determined for the fluorescent intensity three hours later with an excitation wavelength of 544 nm and a fluorescent wavelength of 590 nm as described by Ahmed S. A. et al. (J. Immunol. Method. 170, 211-224 (1994)) and in accordance with the manufacture's instruction.
# [4] = test system: human neonatal dermal fibroblast (Cryo NHDF-Neo); test: cells; conditions: for effect of pre-irradiation addition on viable cells and cell death (in words): pre-irradiation addition 0.001 to 100 μM, UV-A 9 J/cm^2
# Method: The ultraviolet irradiation after switching into a medium added with 0.1 μM (micro-molar) D-proline was employed as a positive control, while the ultraviolet irradiation to the medium still being free of such an added amino acid was employed as a negative control.
# (degrees Celsius) for 40 hours.
# [5] = test system: Male hairless mice (Hos: HR-1)
# Source text: as §1
# After the end of the UV irradiation, the skin thickness was measured using a thickness gauge (Mitsutoyo Corporation, PK-1012SU). The measured value of the skin thickness was designated as “skin thickness×2”, since the measurement was conducted by pinching the skin with the thickness gauge.
# [6] = Homo sapiens, Fibroblast, light or radiation study, read-out: percentage of the viable cell
Compound,effect on UV-B-induced wrinkling (in words) [1],number of animals of each wrinkle score after the UV-B irradiation [1],"number of animals of each wrinkle score after the UV-B irradiation ([2]; UV-B total 4.482 J/cm^2, UV(+) control: 2 scored 4, two 5, one 6, one 7)",effect on UV-B-induced wrinkling (in words) ([2]; P=1.8% in Mann-Whitney U test),"percentage of the viable cell (positive control) ([3]; added at 0.1 μM, called positive control, negative control 64%) [%]",effect of post-irradiation addition on viable cells and cell death (in words) ([3]; post-irradiation addition 0.01 to 100 μM),"percentage of the viable cell ([3]; post-irradiation addition at 0.01 μM, negative control 64%) [%]","percentage of the viable cell ([3]; post-irradiation addition at 0.1 μM, negative control 64%) [%]","percentage of the viable cell ([3]; post-irradiation addition at 1 μM, negative control 64%) [%]","percentage of the viable cell ([3]; post-irradiation addition at 100 μM, negative control 64%) [%]","viability at 0.01 µM [4, 6] [%]","viability at 0.1 µM [4, 6] [%]","viability at 1 µM [4, 6] [%]","viability at 10 µM [4, 6] [%]","viability at 100 µM [4, 6] [%]",effect of pre-irradiation addition on viable cells and cell death (in words) [4],"measured value of the skin thickness (skin thickness×2) ([5]; 10 mM in drinking water during 12 weeks UV-B, total 4.482 J/cm^2, UV(−)/H20 0.81 mm, UV(+)/H20 1.25 mm) [mm]","effect on UV-B-induced skin thickening (in words) ([5]; 10 mM in drinking water, UV-B total 4.482 J/cm^2, Bonferroni/Dunn test)","viability at 0.001 µM [4, 6] [%]"
CSCC[C@@H](N)C(=O)O [D-methionine],statistically significant reduction in this wrinkling,six animals scored 5 and two animals scored 6,"four animals scored 3, two animals scored 4 and one animal scored 5",statistically significant reduction in this wrinkling,82,an increased percentage of the viable cell and a reduced cell death,93,84,82,87,102,81,97,114,76,an increased percentage of the viable cell and a reduced cell death,1.00,statistically significant reduction in this skin thickening,–
"O=C(O)[C@H]1CCCN1 [D-proline, reference compound]",–,–,–,–,–,–,–,–,–,–,–,100,–,–,–,–,–,–,–
CSCC[C@H](N)C(=O)O [L-methionine],less effective in reducing the UV-B irradiation-induced wrinkling than D-methionine,"one animal scored 4, two animals scored 5, two animals scored 6 and two animals scored 7",–,–,–,–,–,–,–,–,72,67,45,73,62,an increased percentage of the viable cell and a reduced cell death,–,–,40
